Test results taken from US20220152082A1, “Methods for Cancer Diagnosis, Prognosis or Treatment” (AnPac Bio-Medical Science Co., Ltd., priority 2019, published 2022).

Assays:
NF-κB = assay: Western blot of p65 and IκBα phosphorylation, T47D; format: cell-based, human; conditions: 10 μM, 8 days
LINC00472 [1] = assay: qRT-PCR of LINC00472 expression, T47D; format: cell-based, human; conditions: 10 μM, 8 days
Description: Total RNA was extracted from fresh-frozen tumor samples and cultured tumor cells using the […] kit (Qiagen). RNA samples were reverse-transcribed (RT) to cDNA using the cDNA Reverse Transcription kit (LifeTech), and analyzed for LINC00472 expression with real-time PCR (qPCR). Breast cancer cells were transfected with Lincode Human LINC00472 (79940) siRNA-SMART pool (D-001320-10-05) or Lincode Non-targeting Pool (D-001320-10-05), negative control from Dharmacon, following the manufacturer's protocol for Lipofectamine RNAiMAX (Thermo Fisher Scientific). The method of transfection was known in the art. Cell lysates were prepared for analysis after 36 hours of incubation of the transfected cells. […] After eight days of culture, cells were collected, and total RNA and proteins were extracted for qRT-PCR analysis of LINC00472 and western blot of ERα and NF-κB, respectively.

LINC00472 [2] = assay: TNF-α treatment, LINC00472 expression; format: cell-based; conditions: breast cancer cells, TNF-α 10 ng/ml, 24 hours
Description: Total RNA was extracted from fresh-frozen tumor samples and cultured tumor cells using the Allprep DNA/RNA kit (Qiagen). RNA samples were reverse-transcribed (RT) to cDNA using the cDNA Reverse Transcription kit (LifeTech), and analyzed for LINC00472 expression with real-time PCR (qPCR).
TNF-α (Sigma-Aldrich), diluted in the culture medium immediately before experiment, was added to cultured cells with a final concentration of 10 ng/ml. The cells were incubated for 24 hours before analysis. DMSO (Sigma-Aldrich) treated cells were used as control. Total RNA and proteins were extracted for analysis of LINC00472 expression and NF-κB activation.

CC/C(=C(\c1ccc(O)cc1)c1ccc(OCCN(C)C)cc1)c1ccccc1 [4-hydroxytamoxifen, 4-Hydroxytamoxifen]
phosphorylation of p65 and IκBα (NF-κB): increased
expression of LINC00472 (LINC00472 [1]): decreased
expression of LINC00472 (LINC00472 [1]; listed as tamoxifen): lowered

TNF-α
LINC00472 expression (LINC00472 [2]): no effect
